Where no end group is shown, it is not given here.
How the values were obtained:
[1] = tested on: CD11b+ macrophage isolated from peripheral blood; experiment: IL-6 and IL-10 expression (ELISA) in CD11b+ macrophages treated with SP; format: cell-based, C57b1/6 mice; settings: CD11b+ macrophage in macrophage activation media; SP as Example 1-(1); 4.5, 10, 24 hours; FIG. 3
Method: [The procedure below names another cell line; the source says it served here with some conditions changed.] (§1) Peripheral blood was collected from C57b1/6 mice (8 weeks, sex; male, n=5, Average Weight; 20 g), diluted doubly with PBS, carefully placed on Ficoll in a tube, and then centrifuged at 2200 rpm for 20 minutes. By centrifuging, from the bottom, an erythrocyte layer, a ficoll layer, a mononuclear cell layer, and a plasma layer were obtained in order. The mononuclear cell layer and plasma layer were isolated, excluding the erythrocyte layer and ficoll layer, and then washed one time with PBS. Then, the number of cells was counted; the cells with a concentration of 1×10^5/0.2 ml were seeded onto T-cell activation media (lymphocyte activation media; RPMI, 10% FBS, 100 μM 2-mercaptoetanol, 20 μg/ml ConA); then the cells were cultured at an incubator of 37° C.; and then culture supernatant was taken at 4.5 hours, 10 hours, and 24 hours. For SP-treated group, 10 nmole/kg of SP dissolved in a physiological saline was treated to T-cell activation media. […] After 30 minutes, 100 μl of stop codon was treated to stop the reaction; the optical density was measured at 450 nm; the amounts of cytokines were converted based on a protein conversion formula by a standard sample; and then the results were shown in FIG. 1. […]

leukocytes in blood = experiment: Corneal epithelial burn model: number of leukocytes in blood; format: in vivo, New Zealand white rabbit; settings: rabbit, alkali burn of cornea; 5 nmole/kg SP i.v. twice; after three days after burning; vs continuously increased without SP; FIG. 6
Method: (§2) Ketalar (50 mg/ml, Yuhan Corporation) and Rompun (23.32 mg (Xylazine hydrochloride)/ml, Bayer Korea Corporation) were mixed in a rate of 2:1, and then total 900 μl (Ketalar 600 μl: Rompun 300 μl) was injected into muscles of rabbits (New Zealand white rabbit, Male, 2.5 kg, n=4). After the intramuscular injection, 300 μl (Ketalar 200 μl: Rompun 100 μl) of the same anesthetic drug was injected in the rabbit's ear vein.
A 6 mm paper disc fully wetted by 1N NaOH was contacted to a limbus part of rabbit's cornea for 10 seconds. After alkali burning, corneal epithelium was removed in a size of the paper disc. The rabbit's eyes were quickly washed with a physiological saline immediately after alkali burning. At the same time, 5 nmole/kg of SP dissolved in a physiological saline was intravenously injected, and then after 24 hours, was injected once more (immediately after burning and at 24 hours after burning). For the control, PBS with the same volume was injected (injection Volume: 1 ml). […]
2 ml of the whole 10 ml was used for counting blood cells and the number of leukocytes was analyzed in Neodin (Company for analysis of blood cells). Concretely, 2 ml of blood was added to a vial including EDTA; it was well mixed; then the whole leukocyte level was analyzed in an automatic analyzer (SYSMEX XE-2100 automatic analyzer from SYSMEX Corporation [Japan]); and then the results were shown in FIG. 6.

[2] = tested on: hematopoietic stem cells in blood; experiment: Corneal epithelial burn model: HSC-CFU assay of blood cells; format: in vivo, New Zealand white rabbit; settings: rabbit, alkali burn of cornea; 5 nmole/kg SP i.v. immediately and 24 hours after burning; without SP peak at five days; FIG. 5
Method: as §2
(§3) A 6 mm paper disc fully wetted by 1N NaOH was contacted to a limbus part of rabbit's cornea for 10 seconds. After alkali burning, corneal epithelium was removed in a size of the paper disc. The rabbit's eyes were quickly washed with a physiological saline immediately after alkali burning. At the same time, 5 nmole/kg of SP dissolved in a physiological saline was intravenously injected, and then after 24 hours, was injected once more (immediately after burning and at 24 hours after burning). For the control, PBS with the same volume was injected (injection Volume: 1 ml).
(§4) Peripheral blood was collected from ear veins in 10 ml at one, three, five and seven days after alkali burning. […]
1×10^4 cells among the whole cells was used for HSC-CFU assay. […] The cells were cultured in the media for 2 weeks (5% CO2, 37° C.), the number of colonies was counted by using a microscope (Leica) and then the results were shown in FIG. 5.

[3] = tested on: CD4+ T cell isolated from peripheral blood; experiment: IL-6 and IL-10 expression (ELISA) in CD4+ T cells treated with SP; format: cell-based, C57b1/6 mice; settings: CD4+ T cell in T-cell activation media; SP as Example 1-(1); 4.5, 10, 24 hours; FIG. 2
Method: [The procedure below names another cell line; the source says it served here with some conditions changed.] as §1

[4] = tested on: mononuclear cells in blood; experiment: Corneal epithelial burn model: number of mononuclear cells in blood; format: in vivo, New Zealand white rabbit; settings: rabbit, alkali burn of cornea; 5 nmole/kg SP i.v. immediately and 24 hours after burning; vs continuously increased without SP; FIG. 4
Method: as §2, §3, §4
The blood obtained from the above step was diluted twice with PBS, and then carefully put on Ficoll in a tube. […] Then, after adding 30 ml of PBS and centrifuging (washing step), the number of cells was counted to confirm the number of cells per 1 ml and then the results were shown in FIG. 4.

## Substance-P (RPKPQQFFGLM; not fully specified; ends and bridges not checked; UniProt P20366 58-68, looked up)
[1]
  expression level of IL-6 in culture supernatant: no difference
  expression of IL-10 in culture supernatant: increased
Leukocytes in blood
  number of leukocytes in blood (increase % based on Day 0-level): sharply decreased
[2]
  number of HSC (HSC-CFU colonies) in blood: increased at early stage and then decreased immediately three days after injection
[3]
  expression level of IL-6 in culture supernatant: no difference
  expression of IL-10 in culture supernatant: increased
[4]
  total number of mononuclear cells per 1 ml blood: decreased at seven days
